Like-named read-outs stand apart in the source and are kept apart here.
What was measured:
[1] = GC-head space: effect of enablers on the encapsulation of menthol by PVP; assay type: physicochemical; settings: for ability of enabler to encapsulate menthol: GC-Head space against control; for ability of enabler to encapsulate menthol / GC-HS area Menthol: with PVP; for GC-HS area (% of control sample): menthol, control without PVP
[2] = GC-head space: effect of enablers on the encapsulation of menthol and limonene combination by PVP; assay type: physicochemical; settings: for GC-HS area (% of control sample) Limonene / GC-HS area (% of control sample) Menthol / GC-HS area Limonene / GC-HS area Menthol: menthol + limonene with PVP
[3] = UV-vis spectroscopy of enabler interaction with PVP (absorbance at 236 nm); assay type: physicochemical
[4] = cited from earlier work
[5] = GC head space of benefit agents in the presence of PVP and BHT; assay type: physicochemical

Compound | GC-HS area Menthol ([1]; enabler concentration 0.05%) | GC-HS area Menthol ([1]; enabler concentration 0.1%) | GC-HS area (% of control sample) ([1]; enabler 0.05%) | GC-HS area (% of control sample) ([1]; enabler 0.1%) | GC-HS area (% of control sample) Limonene ([2]; enabler 0.05%) | GC-HS area (% of control sample) Menthol ([2]; enabler 0.05%) | GC-HS area Limonene ([2]; enabler 0.05%) | GC-HS area Menthol ([2]; enabler 0.05%) | GC-HS area (% of control sample) Limonene ([2]; enabler 0.1%) | GC-HS area (% of control sample) Menthol ([2]; enabler 0.1%) | GC-HS area Limonene ([2]; enabler 0.1%) | GC-HS area Menthol ([2]; enabler 0.1%) | GC-HS area (% of control sample) Limonene ([2]; enabler 0.5%) | GC-HS area (% of control sample) Menthol ([2]; enabler 0.5%) | GC-HS area Limonene ([2]; enabler 0.5%) | GC-HS area Menthol ([2]; enabler 0.5%) | LogP value [4] | other results
CC(=O)O [Acetic acid] | 708 | 1030 | 0.94 % of control sample | 1.37 % of control sample | 91.77 % of control sample | 0.50 % of control sample | 1860568 | 105 | 112.66 % of control sample | 0.82 % of control sample | 2096101 | 174 | 97.95 % of control sample | 1.89 % of control sample | 2053175 | 399 |  | ability of enabler to encapsulate menthol [1]: effectively encapsulate menthol; GC-HS area Menthol ([1]; enabler concentration 0.5%): 925; GC-HS area (% of control sample) ([1]; enabler 0.5%): 1.23 % of control sample
CC(C)=O [Acetone] | 541 | 179 | 0.72 % of control sample | 0.24 % of control sample | 88.91 % of control sample | 1.04 % of control sample | 1825472 | 220 | 103.37 % of control sample | 1.74 % of control sample | 1886916 | 369 | 106.24 % of control sample | 4.21 % of control sample | 2004605 | 891 |  | ability of enabler to encapsulate menthol [1]: effectively encapsulate menthol; GC-HS area Menthol ([1]; enabler concentration 0.5%): 199; GC-HS area (% of control sample) ([1]; enabler 0.5%): 0.27 % of control sample
Cc1cc(C(C)(C)C)c(O)c(C(C)(C)C)c1 [BHT, Butylated hydroxy toluene] | 10608 | 10773 | 14.14 % of control sample | 14.36 % of control sample | 108.95 % of control sample | 23.30 % of control sample | 1813235 | 4929 | 102.91 % of control sample | 30.48 % of control sample | 1866057 | 6449 | 108.30 % of control sample | 58.28 % of control sample | 2020945 | 12330 |  | Absorbance ([3]; 236 nm, enabler 10 ppm with PVP in 95% v/v ethanol): 0.155; interaction of enabler with PVP ([3]; UV-vis, 10 ppm): comparatively lower activities; GC-HS area Menthol ([1]; enabler concentration 0.5%): 8798; GC-HS area (% of control sample) ([1]; enabler 0.5%): 11.73 % of control sample
CCCCCCCCCCCCCCCCO [Cetyl alcohol, reference compound] |  |  |  |  |  |  |  |  |  |  |  |  |  |  |  |  | 7.25 | interaction of the enabler with the polymer ([3]; UV-vis, concentration not given): No interaction
CCCCCCCCCCCCN [Dodecyl amine] |  |  |  |  |  |  |  |  |  |  |  |  |  |  |  |  | 4.76 | 
CC1CCC(C(C)C)C(O)C1 (stereo not shown) [Menthol] |  |  |  |  |  |  |  |  |  |  |  |  |  |  |  |  |  | selectivity of encapsulation in menthol and limonene combination ([2]; PVP with enablers): preferentially encapsulated as against limonene
CCCCC(CC)COC(=O)C=Cc1ccc(OC)cc1 (stereo not shown) [Octyl methoxy cinnamate] |  |  |  |  |  |  |  |  |  |  |  |  |  |  |  |  | 5.8 | 
Oc1cc(Cl)ccc1Oc1ccc(Cl)cc1Cl [Triclosan] | 4977 | 3482 | 6.63 % of control sample | 4.64 % of control sample | 95.29 % of control sample | 3.59 % of control sample | 1925700 | 759 | 99.50 % of control sample | 1.30 % of control sample | 1916012 | 274 | 105.82 % of control sample | 3.98 % of control sample | 2027488 | 841 |  | Absorbance [3]: 0.961; interaction of enabler with PVP [3]: stronger interaction with PVP; ability of enabler to encapsulate menthol [1]: effectively encapsulate menthol; GC-HS area Menthol ([1]; enabler concentration 0.3%): 6103; GC-HS area (% of control sample) ([1]; enabler 0.3%): 8.14 % of control sample
CCCCCCCCCCN [decyl amine] |  |  |  |  |  |  |  |  |  |  |  |  |  |  |  |  | 1.92 | 
CCCCCCCCCCCC(=O)OC [methyl laurate] |  |  |  |  |  |  |  |  |  |  |  |  |  |  |  |  | 5.41 | 
CC1=CCC2CC1C2(C)C (stereo not drawn) [α-Pinene] |  |  |  |  |  |  |  |  |  |  |  |  |  |  |  |  | 4.83 | encapsulation by PVP in the presence of BHT as enabler [5]: not encapsulated
